Patent US20110275599A1, “USE OF COLD-STABILIZED METHYLATED VEGETABLE OILS AS AN AGRICULTURAL CHEMICAL COFORMULANT” (priority 2010, published 2011)

Test: High throughput solubility screen in Permaflo methylated soybean oil
Type: physicochemical
Experimental: The solubility of several agricultural active ingredients in Permaflo methylated soybean oil was determined using a high throughput solubility screen.
Liquid handler was calibrated for each liquid and vials were tared. Active ingredients were melted or dissolved and then transferred into tared vials. Solvent was removed or active was allowed to crystallize before weighing. Permaflo methylated soybean oil was added in desired quantities; vials were weighed, and capped. Mixtures were agitated (220 rpm) for 48 hours at 0° C. […] Samples were held at 0° C. for 24 hours before imaging. Samples were transferred to shaker plate on bench and were agitated for 48 hours, before seeding, holding for 24 hours and imaging. Samples were then transferred to 40° C. shaker plate, agitated for 48 hours, seeded, held and then imaged again. All samples were imaged using normal light.

SMILES | solubility in Permaflo methylated soybean oil (0° C.) [%] | solubility in Permaflo methylated soybean oil (24° C.) [%] | solubility in Permaflo methylated soybean oil (40° C.) [%]
CCOP(=S)(OCC)Oc1nc(Cl)c(Cl)cc1Cl [Chlorpyrifos] | 35 | 55 | >60
Nc1c(Cl)c(F)nc(OCC(=O)O)c1Cl [Fluroxypyr] | 25 | 35 | 55
